Test results reported in patent US8552253B2, “Screening of drug for attention deficit hyperactive disorder by using GIT1 knock-out mice as a novel ADHD mouse model” (Korea Advanced Institute of Science and Technology, priority 2011, dated 2013).

What was measured:
Assay type in all cases: in vivo
GIT1 knock-out mouse [1] = assay: Open field test of GIT1 knock-out mouse; conditions: peritoneal injection just before test, one time, amphetamine 4 mg/kg/day, methylphenidate 2 mg/kg/day, 60 minutes, FIGS. 3B and 3C
Experimental: (§1) In order to observe hyperactivity of mice using the GIT1 knock-out mice of the present invention, an open field test was executed in a novel environment. A GIT1 knock-out mouse and a normal mouse (wild type) as a control, each mouse being aged 2 to 5 months, were prepared. An open space was prepared using a white box which is never exposed to the mice and has a dimension of 40-40-40 cm (width-length-height). After placing each mouse in the center of the open space and video shooting a distance of the mouse for 60 minutes, results thereof including, for example, a total distance, an average movement speed, a central space invasion rate, etc., were assayed through an activity analysis program. For analysis of behavior in the open space, amphetamine (4 mg/kg/day, one time) and methylphenidate (2 mg/kg/day, one time) used as ADHD protection drugs were administered through peritoneal injection just before placing the mouse therein, followed by immediately placing the mouse in the center of the open space.

GIT1 knock-out mouse [2] = assay: Novel object recognition test of GIT1 knock-out mouse; conditions: peritoneal injection 4 mg/kg/day, 20 minutes before the sample phase, versus saline, FIG. 6C
Experimental: A novel object recognition test for assessment of object recognition and memory performance using the GIT1 knock-out mouse was performed in the same open space box as used in the open field test. The novel object recognition test included a sample phase and a test phase. During the sample phase, the mouse was allowed to detect the same two objects placed in an open space box for 10 minutes and, by video shooting the sample phase, times of observing both the objects by the mouse were recorded. As a result, it was found in FIG. 6A that a difference in object detection time between the normal mouse and the GIT1 knock-out mouse is not statistically significant. Further, one of the same two objects, for example, was replaced by a novel object not exposed to the mouse and, after 24 hours, a test period was proceeded. Such a test period was 10 minutes and a time of observing two objects by the mouse was measured during the test period. In this regard, if the nose end of the mouse contacts the object or the mouse heads for the object within 2 cm before the same, this was defined as the observation. For observing recovery of the object recognition and/or memory performance, the present inventive mouse was administered with amphetamine or saline through peritoneal injection at a dose of 4 mg/kg/day and placed in an open space box, 20 minutes before the sample phase.

normal mouse (wild type) = assay: Open field test of normal mouse (control); conditions: peritoneal injection just before test, one time, amphetamine 4 mg/kg/day, methylphenidate 2 mg/kg/day, 60 minutes
Experimental: as §1

GIT1 knock-out mouse [3] = assay: EEG analysis of theta section waveform in the frontal lobe of GIT1 knock-out mouse; conditions: after administering amphetamine, compared to a control having saline, FIG. 7C
Experimental: A process of assaying an abnormal theta section waveform and a power spectrum density in the frontal lobe using the GIT1 knock-out mouse according to the present invention was executed after administering ketamine to a mouse through peritoneal injection at a dose of 150 mg/kg to anesthetize the mouse and fixing the head of the mouse to a stereotaxic instrument. EEG electrodes were inserted into both the right frontal lobe and the left frontal lobe. More particularly, a correct fixing position was set by calculating a correct coordinate having the front side of 2.8 mm and each lateral side of 0.8 mm with reference to the bregma, via the stereotaxic instrument. A grounding electrode was inserted into the occipital lobe. After inserting the electrodes and 1 week recovery period, the mouse was placed in an EEG chamber to measure a brain wave for 1 hour. EEG signals were amplified using a Grass model 7H polygraph (Grass Technologies) and digitalized at a sampling frequency of 2000 Hz using DIGIDATA 1320A (Molecular Devices), followed by acquisition of data using pClamp8.0 program (Axon Instruments) and analysis thereof.

SMILES	movement distance of the GIT1 knock-out mouse in open space (hyperactivity) (GIT1 knock-out mouse [1])	object recognition ability (novel object recognition) (GIT1 knock-out mouse [2])	movement distance of the normal mouse in open space (normal mouse (wild type))	abnormal theta waveform in the frontal lobe (EEG) (GIT1 knock-out mouse [3])
CC(N)Cc1ccccc1 (stereo not drawn) [amphetamine]	significant recovery	can be recovered	considerably long distance	favorably recovered
COC(=O)C(c1ccccc1)C1CCCCN1 (stereo not drawn) [methylphenidate]	significant recovery		considerably long distance	
